Laboratory results reported in US12653827B2, “Methods of treating indolent systemic mastocytosis” (Telios Pharma Inc., priority 2024, dated 2026).
Where two headings read alike, the source gives them in different places.

Experiments:
BTK [1] = biological target: T1, BTK (Homo sapiens, UniProt Q06187); experiment: BTK phosphorylation in mast cells (FIG. 19); format: cell-based; set-up: endogenous in cells
mast cells = experiment: Monomeric IgE-mediated degranulation and cytokine production in mast cells; format: cell-based, human; conditions: mast cells from a healthy donor, treated 2 hours, myeloma IgE with SCF
Procedure: Mast cells from a healthy donor were starved of SCF for 18 hours and treated with Compound 128 for 2 hours. Mast cells were stimulated with SCF (100 ng/mL) or myeloma IgE (3 μg/mL; Millipore Sigma) alone or in combination for 30 minutes (CD63 and Histamine) or 24 hours (cytokine production), respectively. For the histamine and cytokine test, supernatant was collected and the levels of histamine and cytokines were measured as set forth in Example 4 for histamine and Example 7 for cytokines. For the CD63 test, the cells were stained for CD63, data was acquired on a flow cytometer and percent activated mast cells calculated as set forth in Example 4. […] The monomeric IgE contribution to degranulation and cytokine production is inhibited by Compound 128.

[2] = test system: downstream signaling proteins; experiment: Downstream signaling proteins in antigen-stimulated mast cells (FIG. 20); format: cell-based; conditions: mast cells stimulated with an antigen
BTK [3] = biological target: T1, BTK; experiment: pBTK test in ISM-like (+SCF) human mast cells; format: cell-based; set-up: endogenous in cells; host or cells: Primary human mast cells differentiated from bone marrow CD34+ cells of healthy donors, cultured with SCF; conditions: six healthy donors, treated two hours
Procedure: Human mast cells were derived from bone marrow CD34+ cells from six healthy donors for up to eight weeks by culturing CD34+ cells in StemSpan SFEM II (Stem Cell Technologies) supplemented with stem cell factor (SCF; 100 ng/mL; R&D System), IL-6 (R&D Systems), IL-3 (R&D Systems) and 1% penicillin/streptomycin (P/S; Gibco) for the first 10 days and in StemSpan SFEM II supplemented with SCF and IL-6 and 1% P/S for the remaining time in culture. […] Supernatant was collected and histamine levels were measured using a Histamine ELISA kit (Eagle Biosciences). […] Percent of activated mast cells was calculated as number of activated mast cells over the total number of mast cells.
Human mast cells were differentiated from bone marrow CD34+ cells from six healthy donors, cultured and sensitized as set forth in Example 4. […] The median fluorescence intensity of phosphorylated BTK was measured. CD63 and histamine levels in these cells were measured and percent activated mast cells were calculated as set forth in Example 4. The percent of stimulated control for pBTK, activated mast cells (CD63+) and histamine levels was calculated. […]

basophils = experiment: Basophil Activation Test (BAT), CD63, anti-FcεR stimulated blood from healthy donors; format: cell-based, human; conditions: for EC50: Homo sapiens
Procedure: The BAT was conducted as set forth in Santos (2021) Allergy, 76:2420-2432. Blood from six healthy donors was drawn and Compound 128 was added at various concentrations (10 μM, 3.16 μM, 1 μM, 0.3 μM, 0.1 μM, 0.03 μM, or 0 μM). Blood samples were gently rocked at room temperature for 2 hours, 24 hours, or 48 hours. The BAT assay using the Flow Cast Basophil Activation Kit (Buhlmann Diagnostics; Catalog #B-CCR-STCON) was then conducted following manufacturer instructions by (1) stimulating the blood with anti-FcεR stimulation control in stimulation buffer with IL-3 and staining cells for CCR3 and CD63 for 15 minutes at 37° C., (2) lysing red blood cells and fixing cells with Lysing Reagent at room temperature for 10 minutes, (3) washing cells with Wash Buffer, and (4) acquiring data on a flow cytometer. Activated basophils were defined as CCR3+, low side scatter and CD63+. Percent of activated basophils was calculated as number of activated basophils over the total number of basophils. A four-parameter logistic regression was applied to determine the EC50 and EC90.

BTK [4] = biological target: T1, BTK; experiment: MRGPRX2-induced BTK phosphorylation in ISM-like mast cells; format: cell-based; set-up: endogenous in cells; host or cells: Primary human mast cells differentiated from bone marrow CD34+ cells of healthy donors, cultured with SCF; conditions: 0.1 μM; C48/80 stimulation
Procedure: Human mast cells were differentiated from bone marrow CD34+ cells from four healthy donors and were cultured in the presence of SCF (100 ng/mL) to mimic mast cells in ISM and treated with Compound 128 for two hours prior to stimulation. Mas-related G protein-coupled receptor (MRGPRX2) agonists, Compound 48/80 (C48/80; a product of N-methyl-p-methoxyphenethylamine with formaldehyde) or Substance P (SP) were used to activate the MRGPRX2 pathway. For pBTK test, cells were stimulated with C48/80 (10 μg/mL) for ten minutes at 37° C. and cells were stained. The median fluorescence intensity of phosphorylated BTK was measured. The fold change over unstimulated control for pBTK was calculated. For cytokine test, cells were stimulated with C48/80 (10 μg/mL) or SP (30 μM) for four hours at 37° C. Supernatant was collected and cytokine levels were measured using the BD Cytometric Bead Array (CBA) human soluble protein master buffer kit (Becton Dickinson) and BD CBA human soluble protein flex sets for IL-8, MCP-1, GM-CSF and IL-13 (Becton Dickinson). Cytokine levels were measured and normalized to percent of control, with 0% representing the level of the unstimulated control.

T1 sequence (Q06187 whole entry): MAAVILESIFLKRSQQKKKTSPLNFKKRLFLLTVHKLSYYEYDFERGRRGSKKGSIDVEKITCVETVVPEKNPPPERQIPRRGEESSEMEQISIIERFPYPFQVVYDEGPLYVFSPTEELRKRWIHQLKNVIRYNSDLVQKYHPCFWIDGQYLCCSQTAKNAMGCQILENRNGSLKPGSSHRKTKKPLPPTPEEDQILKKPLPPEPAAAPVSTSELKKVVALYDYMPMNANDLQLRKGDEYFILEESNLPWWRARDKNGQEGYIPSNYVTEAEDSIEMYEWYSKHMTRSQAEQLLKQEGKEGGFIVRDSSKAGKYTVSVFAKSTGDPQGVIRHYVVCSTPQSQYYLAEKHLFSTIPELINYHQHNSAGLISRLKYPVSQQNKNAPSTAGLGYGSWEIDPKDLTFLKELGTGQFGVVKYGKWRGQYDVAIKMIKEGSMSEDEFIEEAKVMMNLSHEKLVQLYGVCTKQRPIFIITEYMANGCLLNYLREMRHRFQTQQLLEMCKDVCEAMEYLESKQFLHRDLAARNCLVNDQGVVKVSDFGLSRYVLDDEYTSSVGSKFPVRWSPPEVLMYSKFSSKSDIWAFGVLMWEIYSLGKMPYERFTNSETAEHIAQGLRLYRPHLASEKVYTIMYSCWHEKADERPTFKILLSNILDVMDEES

- potency in inhibiting BTK phosphorylation in mast cells (BTK [1]): high potency
- inhibition of IgE-mediated BTK phosphorylation (BTK [3]): potently inhibits
- MRGPRX2-induced BTK phosphorylation (BTK [4]): inhibited
Structure (SMILES): C=CC(=O)N1CCC(F)(CNc2ncnc(N)c2-c2ccc(Oc3ccccc3)cc2)CC1 [Compound 128, 1-(4-(((6-amino-5-(4-phenoxyphenyl)pyrimidin-4-yl)amino)methyl)-4-fluoropiperidin-1-yl)prop-2-en-1-one]
- monomeric IgE contribution to degranulation and cytokine production (mast cells): inhibited
- activation of multiple downstream signaling proteins [2]: can be inhibited
- EC50 (basophils; 2-hour drug exposure, blood from six healthy donors, read-out: average EC50, inhibition of anti-FcεR induced basophil activation (CD63+)): 500 nM
- EC50 (basophils; 24-hour drug exposure, blood from six healthy donors, read-out: average EC50, inhibition of anti-FcεR induced basophil activation (CD63+)): 120 nM
- EC50 (basophils; 48-hour drug exposure, blood from six healthy donors, read-out: average EC50, inhibition of anti-FcεR induced basophil activation (CD63+)): 100 nM
- EC50 (basophils; 24 hours exposure, Example 2, read-out: average EC50 (n=4), CD63 normalized to DMSO control in CCR3+ basophils): 120 nM
- potency increase of basophil activation inhibition (basophils; after 24 hours drug exposure): approximately 4 fold
